Laboratory results reported in US20110287069A1, “SOLID ORAL FORMULATIONS OF A PYRIDOPYRIMIDINONE” (priority 2009, published 2011).

Experiments:
[1] = solubility and dissolution rate in aqueous media; type: physicochemical
Description: Even at a lower pH of 1, the dissolution rate of (R)-2-amino-7-[4-fluoro-2-(6-methoxy-pyridin-2-yl)-phenyl]-4-methyl-7,8-dihydro-6H-pyrido[4,3-d]pyrimidin-5-one is too slow. The present inventors have discovered that, when (R)-2-amino-7-[4-fluoro-2-(6-methoxy-pyridin-2-yl)-phenyl]-4-methyl-7,8-dihydro-6H-pyrido[4,3-d]pyrimidin-5-one is in the presence of a surfactant or an acid, the problems of a low solubility and a slow dissolution rate are overcome, resulting in (R)-2-amino-7-[4-fluoro-2-(6-methoxy-pyridin-2-yl)-phenyl]-4-methyl-7,8-dihydro-6H-pyrido[4,3-d]pyrimidin-5-one being soluble in aqueous solution and a dissolution rate that is unexpectedly faster and higher.

[2] = particle size by laser light diffraction; type: physicochemical; conditions: micronized, screened through #25 screen
Description: (R)-2-Amino-7-[4-fluoro-2-(6-methoxy-pyridin-2-yl)-phenyl]-4-methyl-7,8-dihydro-6H-pyrido[4,3-d]pyrimidin-5-one was micronized and screened through a #25 screen to a D average particle size of about 2 microns, with laser light diffraction yielding the following results: D(10) 0.78 μm, D(50) 2.18 μm, and D(90) 3.95 μm. The micronized (R)-2-amino-7-[4-fluoro-2-(6-methoxy-pyridin-2-yl)-phenyl]-4-methyl-7,8-dihydro-6H-pyrido[4,3-d]pyrimidin-5-one was then screened and added to a mixing bin along with the succinic acid and part A (50%) of the microcrystalline cellulose. The contents in the mixing bin were mixed for 150 revolutions, screened through a #40 screen and combine with a screened (#40 screen) mixture of AEROSIL 200, crospovidone, and the remaining other part B (50%) of the microcrystalline cellulose. This combination was mixed for 250 revolutions and screened through a #40 screen, and then combine with a first frozen and then milled mixture of vitamin E TPGS (screen no. 0063 using a Fitz mill) and magnesium stearate that was passed through at #30 mesh, to form a final combination, which was then blended together for 150 revolutions and encapsulated in a hard gelatin capsule using an encapsulation machine.

COc1cccc(-c2cc(F)ccc2[C@H]2Cc3nc(N)nc(C)c3C(=O)N2)n1 [(R)-2-amino-7-[4-fluoro-2-(6-methoxy-pyridin-2-yl)-phenyl]-4-methyl-7,8-dihydro-6H-pyrido[4,3-d]pyrimidin-5-one]
solubility ([1]; aqueous media with a pH above 3): very low solubility | dissolution rate ([1]; pH of 1): too slow | D(10) particle size [2]: 0.78 μm | D(50) particle size [2]: 2.18 μm | D(90) particle size [2]: 3.95 μm
